# Paper PMC2635027 (The Journal of Biological Chemistry, 2009)
# Tests used:
# BHK21 cells = assay type: cell-based, hamster; conditions: BHK21 cells at 4 °C; 10 μM; confocal microscopy
# [1] = tested on: BHK21-tTA/anti-CHC cell line; assay type: cell-based, hamster; conditions: +tet control cells; peptides 10 μM, Tf 10 μg/ml; 37 °C; confocal microscopy
# [2] = tested on: BHK21-tTA/anti-CHC cell line; conditions: absence of tetracycline for 2 days; cited from earlier work
Substance,"intracellular fluorescently labeled vesicles, in words (BHK21 cells)","vesicular (endocytic) uptake, in words [1]",inhibition of transferrin internalization [2] [%]
"YARAARQARA [PTD4, TAMRA-PTD4 (YARAARQARA)]",not observed,presence of PTD4-containing vesicles,
"transferrin: transferrin conjugated to Alexa Fluor 633, marker for clathrin-dependent endocytosis",,internalized at high rates,90
